Test results as given in PubChem BioAssay (NCI).
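Assay format: 96-well plates, 48-hour exposure. Definition used: TGI = concentration required for complete inhibition of growth.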

Legend:
Assay in all cases: inhibition of tumour cell growth, NCI panel, 48 h
[1] = system: NCI/ADR-RES ovarian
[2] = system: SK-MEL-28 melanoma
[3] = system: HOP-92 NSCLC
[4] = system: CAKI-1 renal
[5] = system: HCT-116 colon
[6] = system: DU-145 prostate
[7] = system: SF-268 CNS
[8] = system: NCI-H460 lung
[9] = system: EKVX NSCLC
[10] = system: KM12 colon
[11] = system: NCI-H522 lung
[12] = system: ACHN renal
[13] = system: CCRF-CEM leukemia
[14] = system: K-562 leukemia
[15] = system: IGROV1 ovarian
[16] = system: OVCAR-5 ovarian
[17] = system: LOX IMVI melanoma
[18] = system: OVCAR-4 ovarian
[19] = system: RPMI-8226 leukemia
[20] = system: SR leukemia
[21] = system: SNB-75 CNS
[22] = system: T-47D breast
[23] = system: SK-MEL-2 melanoma
[24] = system: HOP-62 NSCLC
[25] = system: 786-0 renal
[26] = system: SW-620 colon
[27] = system: SNB-19 CNS
[28] = system: HT29 colon
[29] = system: OVCAR-3 ovarian
[30] = system: OVCAR-8 ovarian
[31] = system: SK-OV-3 ovarian
[32] = system: SF-539 CNS
[33] = system: MOLT-4 leukemia
[34] = system: UACC-257 melanoma
[35] = system: MDA-N
[36] = system: UACC-62 melanoma
[37] = system: COLO 205 colon
[38] = system: NCI-H226 lung
[39] = system: UO-31 renal
[40] = system: BT-549 breast
[41] = system: MDA-MB-435
[42] = system: SK-MEL-5 melanoma
[43] = system: MDA-MB-231 breast
[44] = system: TK-10 renal
[45] = system: HCC-2998 colon
[46] = system: A498 renal
[47] = system: U251 CNS
[48] = system: RXF 393 renal
[49] = system: A549 NSCLC
[50] = system: NCI-H23 lung
[51] = system: MCF7 breast
[52] = system: PC-3 prostate
[53] = system: SF-295 CNS
[54] = system: M14 melanoma
[55] = system: MALME-3M melanoma
[56] = system: SN12C renal
[57] = system: HCT-15 colon
[58] = system: HL-60(TB) leukemia
[59] = system: HS 578T breast

COc1cccc2c1CCc1cc3c(N)nc(N)nc3nc1-2
TGI [1]: 46.7 µM | TGI [2]: 11 µM | TGI [3]: 32.6 µM | TGI [4]: 45.7 µM | TGI [5]: 8.09 µM | TGI [6]: 23.8 µM | TGI [7]: 42.4 µM | TGI [8]: 25 µM | TGI [9]: 15.3 µM | TGI [10]: 37.5 µM | TGI [11]: 10.8 µM | TGI [12]: 36.5 µM | TGI [13]: 7.02 µM | TGI [14]: > 21.4 µM | TGI [15]: 17.2 µM | TGI [16]: 21.3 µM | TGI [17]: 3.34 µM | TGI [18]: 32.5 µM | TGI [19]: > 100 µM | TGI [20]: > 34.5 µM | TGI [21]: 34.9 µM | TGI [22]: > 67.7 µM | TGI [23]: 33.9 µM | TGI [24]: 20.1 µM | TGI [25]: 6.13 µM | TGI [26]: 25 µM | TGI [27]: 26.7 µM | TGI [28]: 17.3 µM | TGI [29]: 16 µM | TGI [30]: 21.7 µM | TGI [31]: 40.3 µM | TGI [32]: 9.16 µM | TGI [33]: > 100 µM | TGI [34]: 31.4 µM | TGI [35]: 18.1 µM | TGI [36]: 16.7 µM | TGI [37]: 29.8 µM | TGI [38]: 43.2 µM | TGI [39]: 9.7 µM | TGI [40]: 52.1 µM | TGI [41]: 27.4 µM | TGI [42]: 10.2 µM | TGI [43]: 15.9 µM | TGI [44]: 47.3 µM | TGI [45]: 5.78 µM | TGI [46]: 32.9 µM | TGI [47]: > 38.3 µM | TGI [48]: 26.4 µM | TGI [49]: 7.69 µM | TGI [50]: 18.2 µM | TGI [51]: 47.9 µM | TGI [52]: 18.3 µM | TGI [53]: 9.91 µM | TGI [54]: 20.9 µM | TGI [55]: 10.3 µM | TGI [56]: 28.1 µM | TGI [57]: 23.4 µM

C=CC1CCC[N+]1(CC(=O)OCC)Cc1ccccc1 (configuration not stated)
TGI [58]: > 100 µM | TGI [1]: > 100 µM | TGI [2]: > 100 µM | TGI [3]: > 100 µM | TGI [5]: > 100 µM | TGI [6]: > 100 µM | TGI [7]: > 100 µM | TGI [8]: > 100 µM | TGI [9]: > 100 µM | TGI [12]: > 100 µM | TGI [13]: > 100 µM | TGI [14]: > 100 µM | TGI [15]: > 100 µM | TGI [16]: > 100 µM | TGI [18]: > 100 µM | TGI [19]: > 100 µM | TGI [20]: > 100 µM | TGI [21]: > 100 µM | TGI [22]: > 100 µM | TGI [24]: > 100 µM | TGI [25]: > 100 µM | TGI [26]: > 100 µM | TGI [27]: > 100 µM | TGI [28]: > 100 µM | TGI [29]: > 100 µM | TGI [30]: > 100 µM | TGI [31]: > 100 µM | TGI [33]: > 100 µM | TGI [34]: > 100 µM | TGI [35]: > 100 µM | TGI [36]: > 100 µM | TGI [37]: > 100 µM | TGI [38]: > 100 µM | TGI [39]: > 100 µM | TGI [40]: > 100 µM | TGI [41]: > 100 µM | TGI [42]: > 100 µM | TGI [43]: > 100 µM | TGI [44]: > 100 µM | TGI [45]: > 100 µM | TGI [46]: > 100 µM | TGI [47]: > 100 µM | TGI [49]: > 100 µM | TGI [50]: > 100 µM | TGI [51]: > 100 µM | TGI [52]: > 100 µM | TGI [53]: > 100 µM | TGI [54]: > 100 µM | TGI [55]: > 100 µM | TGI [56]: > 100 µM | TGI [57]: > 100 µM

CC(C)(C)[Si](C)(C)Oc1cc(CO)cc2c1cc(=N)o[n+]2[O-]
TGI [58]: > 10 µM | TGI [2]: > 10 µM | TGI [4]: > 10 µM | TGI [6]: > 10 µM | TGI [7]: > 10 µM | TGI [9]: > 10 µM | TGI [10]: > 10 µM | TGI [13]: > 10 µM | TGI [14]: > 10 µM | TGI [15]: > 10 µM | TGI [19]: > 10 µM | TGI [20]: 7.58 µM | TGI [21]: > 10 µM | TGI [22]: > 10 µM | TGI [24]: > 10 µM | TGI [25]: > 10 µM | TGI [26]: > 10 µM | TGI [28]: > 10 µM | TGI [30]: > 10 µM | TGI [31]: > 10 µM | TGI [33]: 9.28 µM | TGI [34]: > 10 µM | TGI [35]: > 10 µM | TGI [36]: > 10 µM | TGI [37]: > 10 µM | TGI [42]: > 10 µM | TGI [43]: > 10 µM | TGI [44]: > 10 µM | TGI [45]: > 10 µM | TGI [48]: > 10 µM | TGI [49]: > 10 µM | TGI [50]: > 10 µM | TGI [51]: 9.25 µM | TGI [52]: > 10 µM | TGI [53]: > 10 µM | TGI [54]: > 10 µM | TGI [55]: > 10 µM | TGI [56]: > 10 µM | TGI [57]: > 10 µM

Cc1cc(C)c(S(=O)(=O)N2CCCN(S(=O)(=O)c3c(C)cc(C)cc3C)OCCCO2)c(C)c1
TGI [58]: > 100 µM | TGI [1]: > 100 µM | TGI [2]: > 100 µM | TGI [3]: > 100 µM | TGI [4]: > 100 µM | TGI [5]: > 100 µM | TGI [6]: > 100 µM | TGI [7]: > 100 µM | TGI [8]: > 100 µM | TGI [9]: > 100 µM | TGI [10]: > 100 µM | TGI [11]: > 100 µM | TGI [12]: > 100 µM | TGI [13]: > 100 µM | TGI [14]: > 100 µM | TGI [15]: > 100 µM | TGI [16]: > 100 µM | TGI [17]: > 100 µM | TGI [18]: > 100 µM | TGI [21]: > 100 µM | TGI [22]: > 100 µM | TGI [23]: > 100 µM | TGI [24]: > 100 µM | TGI [25]: > 100 µM | TGI [26]: > 100 µM | TGI [27]: > 100 µM | TGI [28]: > 100 µM | TGI [29]: > 100 µM | TGI [30]: > 100 µM | TGI [31]: > 100 µM | TGI [33]: > 100 µM | TGI [34]: > 100 µM | TGI [35]: > 100 µM | TGI [36]: > 100 µM | TGI [37]: > 100 µM | TGI [38]: > 100 µM | TGI [39]: > 100 µM | TGI [40]: > 100 µM | TGI [41]: > 100 µM | TGI [42]: > 100 µM | TGI [43]: > 100 µM | TGI [44]: > 100 µM | TGI [46]: > 100 µM | TGI [47]: > 100 µM | TGI [48]: > 100 µM | TGI [49]: > 100 µM | TGI [50]: > 100 µM | TGI [51]: > 100 µM | TGI [52]: > 100 µM | TGI [53]: > 100 µM | TGI [54]: > 100 µM | TGI [59]: > 100 µM | TGI [55]: > 100 µM | TGI [56]: > 100 µM | TGI [57]: > 100 µM
